Assays:
Botrytis cinerea = test: Test E: test suspension sprayed on tomato seedlings, inoculated next day with Botrytis cinerea (tomato Botrytis); visual disease rating (100 = 100% disease control, 0 = no control; dash = not tested); assay type: in vivo; details: 50 ppm
In short: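 Spores were applied one day after spraying the seedlings to run-off. Incubation was 48 h saturated at 20° C, then 3 days in a 24° C growth chamber. Visual ratings, relative to untreated controls, run from 0 (no control) to 100 (complete control).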

[1] = system: Puccinia recondita f. sp. tritici; test: Test B: test solution sprayed on wheat seedlings, inoculated next day with Puccinia recondita f. sp. tritici (wheat leaf rust); disease rating (100 = 100% disease control, 0 = no control; dash = not tested); assay type: in vivo; details: 50 ppm
Source text: The resulting test suspensions were then used in Tests A-F. The test solution was sprayed to the point of run-off on wheat seedlings. […] A rating of 100 indicates 100% disease control and a rating of 0 indicates no disease control (relative to the controls). A dash (—) indicates the compound was not tested.

Alternaria solani = test: Test F: test suspension sprayed on tomato seedlings, inoculated next day with Alternaria solani (tomato early blight); visual disease rating (100 = 100% disease control, 0 = no control; dash = not tested); assay type: in vivo; details: 50 ppm
In short: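 Visual ratings of % disease control versus controls were made after inoculated plants spent 48 h at 27° C. in saturated air plus 3 days at 20° C. The compound suspension had been sprayed to run-off one day before spore inoculation.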

[2] = system: Blumeria graminis f. sp. tritici; test: Test C: test suspension sprayed on wheat seedlings, inoculated next day with Blumeria graminis f. sp. tritici (wheat powdery mildew); visual disease rating (100 = 100% disease control, 0 = no control; dash = not tested); assay type: in vivo; details: 50 ppm
In short: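 Visual ratings of disease control (0–100, relative to controls) were made 8 days after inoculation with B. graminis f. sp. tritici spore dust. Plants were held at 20 °C. Compound was applied as a spray to run-off one day before inoculation.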

Zymoseptoria tritici = test: Test A: test solution sprayed on wheat seedlings, inoculated next day with Zymoseptoria tritici (wheat leaf blotch); disease rating (100 = 100% disease control, 0 = no control; dash = not tested); assay type: in vivo; details: 50 ppm
In short: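 Preventive spray test: compound applied to run-off one day before spore inoculation of wheat seedlings. Incubation was 48 h saturated humidity at 24° C followed by 17 days at 20° C. Disease then scored 0–100 as % control versus untreated plants.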

Phakopsora pachyrhizi = test: Test D: test solution sprayed on soybean seedlings, inoculated next day with Phakopsora pachyrhizi (Asian soybean rust); visual disease rating (100 = 100% disease control, 0 = no control; dash = not tested); assay type: in vivo; details: 50 ppm
In short: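 Preventive spray test: soybean seedlings treated to run-off with ppm-level suspensions (acetone/water 50/50, 250 ppm PEG400), spore-inoculated one day later. Held 24 h at 22 °C in saturated air, then 8 days at 22 °C; disease control scored visually versus untreated plants, 0 = none, 100 = complete.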

Row | Structure (SMILES) | pest or weed control at 50 ppm (Botrytis cinerea) | pest or weed control at 50 ppm [1] | pest or weed control at 50 ppm (Alternaria solani) | pest or weed control at 50 ppm [2] | pest or weed control at 50 ppm (Zymoseptoria tritici) | melting point | pest or weed control at 50 ppm (Phakopsora pachyrhizi)
1 | COc1ccc(Cl)c(-c2nn(C)c(=O)c(C)c2-c2c(F)cccc2F)c1 [Compound 68, 6-(2-chloro-5-methoxyphenyl)-5-(2,6-difluorophenyl)-2,4-dimethyl-3(2H)-pyridazinone] | 99% | 100% | 100% | 100% | 100% | 135 to 138 °C | 100%
2 | COc1cc(OC)c(Cl)c(-c2nn(C)c(=O)c(OC)c2-c2ccc(F)cc2Cl)c1 [Compound 80, 6-(2-chloro-3,5-dimethoxyphenyl)-5-(2-chloro-4-fluorophenyl)-4-methoxy-2-methyl-3(2H)-pyridazinone] | 99% | 100% | 100% | 100% | 100% | 130 to 133 °C | 100%
3 | COc1ccc(Cl)c(-c2nn(C)c(=O)c(Cl)c2-c2ccc(F)cc2Cl)c1 [Compound 83, 4-chloro-5-(2-chloro-4-fluorophenyl)-6-(2-chloro-5-methoxyphenyl)-2-methyl-3(2H)-pyridazinone] | 92% | 100% | 100% | 99% | 100% | 165 to 168 °C | 100%
4 | COc1ccc(Cl)c(-c2nn(C)c(=O)c(C)c2-c2ccc(F)cc2Cl)c1 [Compound 102, 5-(2-chloro-4-fluorophenyl)-6-(2-chloro-5-methoxyphenyl)-2,4-dimethyl-3(2H)-pyridazinone] | 98% | 100% | 100% | 100% | 100% | 149 to 150 °C | 100%
